Data taken from patent US20100130515A1, “Polymorphs and solvates of a pharmaceutical and method of making” (BIOGEN IDEC INC., priority 2007, published 2010).

Assays:
[1] = Relative stability of forms A and B by vapour diffusion experiment (XRPD); assay type: physicochemical; details: NMP vapour, room temperature; for relative stability of the polymorphs: intimate mixture of forms A and B, followed by XRPD
Protocol: The relative stabilities of the forms A and B was determined by a vapour diffusion experiment. Approximately equal amounts of the two forms were ground together to produce an intimate mixture. The mixture was packed into a silicon 510-cut recessed wafer XRPD holder and the XRPD of the mixture determined. The holder was then placed in a covered dish containing NMP (a known solvent 1) at room temperature. The mixture was re-examined from time to time to monitor any changes in the XRPD pattern.
The traces from bottom to top in FIG. 8 were recorded initially, at 24 hours, at 3 days, at 1 week, at 10 days, and at 23 days; the topmost traces are a form A reference and a form B reference.

[2] = Relative stability of forms D and H by vapour diffusion experiment (XRPD); assay type: physicochemical; details: inferred from the higher desolvation temperature, XRPD results inconclusive
Source text: The relative stabilities of Forms D and H was investigated by a vapour diffusion experiment. Approximately equal amounts of the two forms were combined to produce an intimate mixture. The mixture was packed into a silicon XRPD holder and the XRPD of the mixture determined. The holder was then placed in a covered dish containing THF:NMP approx. 90:10 v/v at room temperature. The mixture was re-examined from time to time to monitor any changes in the XRPD pattern.
There was been no significant change in the XRPD traces over 12 days.

cataleptic responses = details: cited from earlier work
Parkinsonian patients = details: cited from earlier work

Cc1cc(Cn2nnc3c(-c4ccco4)nc(N)nc32)ccc1N [Form A, 3-(4-amino-3-methylbenzyl)-7-(furan-2-yl)-3H-[1,2,3]triazolo[4,5-d]pyrimidin-5-amine]
relative stability of the polymorphs [1]: more stable polymorph
relative stability of the polymorphs ([1]; listed as form A): more thermodynamically more stable

Cc1cc(Cn2nnc3c(-c4ccco4)nc(N)nc32)ccc1N [Form B, 3-(4-amino-3-methylbenzyl)-7-(furan-2-yl)-3H-[1,2,3]triazolo[4,5-d]pyrimidin-5-amine]
time point by which the XRPD peaks characteristic of Form B disappear completely ([1]; mixture of forms A and B): ≤ 23 days

Cc1cc(Cn2nnc3c(-c4ccco4)nc(N)nc32)ccc1N [Form H, 3-(4-amino-3-methylbenzyl)-7-(furan-2-yl)-3H-[1,2,3]triazolo[4,5-d]pyrimidin-5-amine]
relative stability of the THF solvates [2]: more likely to be the stable form

CCCn1c(=O)c2c(nc(/C=C/c3ccc(OC)c(OC)c3)n2C)n(CCC)c1=O [KF 17837, E-8-(3,4dimethoxystyryl)-1,3-dipropyl-7-methylxanthine]
anticataleptic effects of a subthreshold dose of L-DOPA plus benserazide (cataleptic responses; in vivo): potentiated
catalepsy induced by haloperidol and reserpine (cataleptic responses; in vivo): reduced
cataleptic responses induced by intracerebroventricular CGS 21680 (cataleptic responses; oral administration): significantly ameliorated

Cn1c(=O)c2[nH]cnc2n(C)c1=O [theophylline, 1,3-dimethylxanthine]
mean objective disability scores (Parkinsonian patients; 15 Parkinsonian patients, up to 12 weeks, 150 mg/day): significant improvements
patients reporting moderate or marked subjective improvement (Parkinsonian patients; of 15 Parkinsonian patients, up to 12 weeks, 150 mg/day): 11
serum theophylline levels (Parkinsonian patients; slow release oral preparation 150 mg/day, after one week): 4.44 mg/L
